Assay [1] has as its system M. tuberculosis (Mtb) H37Rv. Put plainly: Microplate Alamar Blue Assay (MABA), GAS media, replicating Mtb. The format is cell-based, Mycobacterium tuberculosis. As to conditions: Mycobacterium tuberculosis; GAS (glycerol-alanine-salt) media, replicating H37Rv; read-out: GAS media: replicating H37Rv Mtb: MIC 90. Background: The colour change of resazurin is a common sign of viable cells or microbes.

Assay [2] has as its system M. tuberculosis (Mtb) H37Rv. Description: Microplate Alamar Blue Assay (MABA), 7H12 media, replicating Mtb. The following applies: Mycobacterium tuberculosis, 7H12 media (no glycerol), read-out: 7H12 media: Replicating H37Rv Mtb: MIC 90. The format is cell-based.
Assay [3] relates to VERO kidney epithelial cells. Put plainly: VERO toxicity assessment. The following applies: Chlorocebus sabaeus, Vero, read-out: VERO: IC50.

≈ marks a conversion by molar mass, not a printed value.

For 37 compounds, MIC90 and IC50 results are on record in patent US9605002B2, “5,5-heteroaromatic anti-infective compounds” (priority 2012, dated 2017).

What is called IC50 is the concentration that inhibits the measured activity by half. For `Cc1cn2c(C(=O)NCc3cccc(F)c3)c(C)nc2s1` [ND-009762], the MIC90 in assay [1] and in assay [2] was under 2 µM in each case. Also, in assay [3], the IC50 is under 32 µM.
Consider `CCc1nc2sc(C)cn2c1C(=O)NCc1ccc(C(F)(F)F)cc1` [ND-020010], for which the MIC90 in assay [1] and in assay [2] was under 2 µM throughout. Moreover, the IC50 in assay [3] is under 32 µM.
On to `Cc1cn2c(C(=O)NCc3ccc(OC(F)(F)F)cc3)c(C)nc2s1` [ND-020006], for which the MIC90 in assay [1] and in assay [2] was under 2 µM each time. Moreover, the IC50 in assay [3] was under 32 µM.
Take `Cc1cn2c(C(=O)NCc3ccc4c(ccn4C)c3)c(C)nc2s1` [ND-020079]: the MIC90 in assay [1] and in assay [2] was under 2 µM each time. In addition, the IC50 in assay [3] was under 32 µM.
As to `Cc1cn2c(C(=O)NCc3ccc(F)cc3)c(C)nc2s1` [ND-020003], the MIC90 was under 2 µM in assay [1] and 2 to 10 µM (≈ 0.607 to 3.03 µg/mL) in assay [2]. Moreover, the IC50 in assay [3] was under 32 µM.
For `CCc1nc2sc(C)cn2c1C(=O)O` [ND-009745] the same measures were under 32 µM, under 32 µM and under 32 µM.
For `COc1ccc(CNC(=O)c2c(C)nc3sc(C)cn23)cc1` [ND-020027] the same measures were under 2 µM, under 2 µM and under 32 µM.
As to `Cc1cn2c(C(=O)NCc3cccc(N4CCC(=O)CC4)c3)c(C)nc2s1` [ND-020072], the MIC90 in assay [1] and in assay [2] was under 2 µM each time. In assay [3], the IC50 was under 32 µM.
`Cc1cn2c(C(=O)NCc3ccc(C(C)(C)C)cc3)c(C)nc2s1` [ND-020031]: the MIC90 in assay [1] and in assay [2] was under 2 µM each time. Besides, the IC50 in assay [3] was under 32 µM.
As for `Cc1cn2c(C(=O)NCc3ccc4c(ccn4C)c3)c(C(F)(F)F)nc2s1` [ND-020080], the MIC90 in assay [1] and in assay [2] was under 2 µM in each case. For the same compound, in assay [3], the IC50 was under 32 µM.
In the case of `CCc1nc2sc(C)cn2c1C(=O)NCc1ccc(-c2ccc(C(F)(F)F)cc2)cc1` [ND-020043], the MIC90 in assay [1] is under 2 µM; in assay [2], 2 to 10 µM (≈ 0.887 to 4.43 µg/mL). The IC50 in assay [3] is under 32 µM.
Taken in the same sequence, the figures for `Cc1cn2c(C(=O)NCc3ccc4ccn(C)c4c3)c(C)nc2s1` [ND-020077] were under 2 µM, under 2 µM and under 32 µM.
For `Cc1cn2c(C(=O)NCc3cccc(N4CCOCC4)c3)c(C)nc2s1` [ND-020032] the same measures were under 2 µM, 2 to 10 µM (≈ 0.741 to 3.7 µg/mL) and under 32 µM.
In the case of `Cc1cn2c(C(=O)NCc3ccc(N(C)C)cc3)c(C(F)(F)F)nc2s1` [ND-020025], the values for the MIC90 in assay [1] and in assay [2] were under 2 µM and 2 to 10 µM (≈ 0.765 to 3.82 µg/mL), respectively. Besides, the IC50 in assay [3] is under 32 µM.
For `Cc1cn2c(C(=O)NCc3ccc(N4CCOCC4)c(F)c3)c(C)nc2s1` [ND-020034] the same measures were under 2 µM, 2 to 10 µM (≈ 0.777 to 3.88 µg/mL) and under 32 µM.
Taken in the same sequence, the figures for `Cc1cn2c(C(=O)NCc3ccc(-n4cccn4)cc3)c(C)nc2s1` [ND-020064] were under 2 µM, under 2 µM and 20 to 32 µM.
For `COc1ccc(COC(=O)c2c(C)nc3sc(C)cn23)cc1` [ND-010050] the same measures were 2 to 10 µM, 10 to 20 µM (≈ 3.16 to 6.33 µg/mL) and under 32 µM.
As to `Cc1cn2c(C(=O)NCc3ccc(-n4cnnc4)cc3)c(C)nc2s1` [ND-020065], the MIC90 in assay [1] was 2 to 10 µM; in assay [2], 2 to 10 µM (≈ 0.705 to 3.52 µg/mL). In assay [3], the IC50 was in the range of 20 to 32 µM.
In the case of `CCOc1ccc(CNC(=O)c2c(C)nc3sc(C)cn23)cc1` [ND-020028], the MIC90 in assay [1] and in assay [2] was under 2 µM each time. The IC50 in assay [3] was under 32 µM.
Consider `Cc1cn2c(C(=O)NCc3ccc(Oc4ccc(C(F)(F)F)cc4)cc3)c(C)nc2s1` [ND-020055], for which the MIC90 in assay [1] and in assay [2] was under 2 µM throughout. Besides, in assay [3], the IC50 lay within 20 to 32 µM.
For `CCc1nc2sc(C)cn2c1C(=O)NCc1ccc(Oc2ccc(C(F)(F)F)cc2)cc1` [ND-020054], the MIC90 in assay [1] and in assay [2] was under 2 µM in each case. Also, the IC50 in assay [3] lay in the range of 20 to 32 µM.
Consider `Cc1cn2c(C(=O)NCc3ccc4nc(-c5ccc(F)cc5)oc4c3)c(C)nc2s1` [ND-020066], for which the MIC90 was under 2 µM in assay [1] and 2 to 10 µM (≈ 0.841 to 4.2 µg/mL) in assay [2]. Besides, the IC50 in assay [3] was in the range of 20 to 32 µM.
Taken in the same sequence, the figures for `COc1cc(CNC(=O)c2c(C)nc3sc(C)cn23)ccn1` [ND-020017] were under 2 µM, 2 to 10 µM (≈ 0.633 to 3.16 µg/mL) and under 32 µM.
For `Cc1cn2c(C(=O)NCc3ccc(N4CCOCC4)cc3)c(C)nc2s1` [ND-020033] the same measures were under 2 µM, 2 to 10 µM (≈ 0.741 to 3.7 µg/mL) and 20 to 32 µM.
For `Cc1cn2c(C(=O)NCc3ccc(N4CC(C)CC(C)C4)cc3)c(C)nc2s1` (stereo not drawn) [ND-020069] the same measures were under 2 µM, under 2 µM and 20 to 32 µM.
With `Cc1cn2c(C(=O)NCc3cccc(N4CC(C)OC(C)C4)c3)c(C)nc2s1` (stereo not drawn) [ND-020075], the MIC90 in assay [1] and in assay [2] was under 2 µM in each case. The IC50 in assay [3] is under 32 µM.
As for `CCc1nc2sc(Cl)cn2c1C(=O)NCc1ccc(C(F)(F)F)cc1` [ND-020011], the MIC90 was under 2 µM in assay [1] and 2 to 10 µM (≈ 0.776 to 3.88 µg/mL) in assay [2]. Besides, the 50% inhibitory concentration (IC50) in assay [3] was under 32 µM.
In the case of `Cc1cn2c(C(=O)NCc3cc(F)cc(F)c3)c(C)nc2s1` [ND-020004], the MIC90 in assay [1] and in assay [2] was under 2 µM each time. In assay [3], the IC50 was under 32 µM.
For the compound `Cc1cn2c(C(=O)NCc3cc(Cl)cc(Cl)c3)c(C)nc2s1` [ND-020005], the MIC90 in assay [1] and in assay [2] was under 2 µM in each case. Besides, in assay [3], the IC50 was under 32 µM.
For the compound `CC1=Nn2c(nc(C)c2C(=O)NCc2ccc(Oc3ccc(F)cc3)cc2)C1` [ND-020050], the figures for the MIC90 in assay [1] and in assay [2] were under 2 µM and 2 to 10 µM (≈ 0.757 to 3.78 µg/mL), respectively. Besides, the IC50 in assay [3] fell in the range of 20 to 32 µM.
Taken in the same sequence, the figures for `Cc1nn2c(C(=O)NCc3ccc(Oc4ccc(F)cc4)cc3)c(C)nc2s1` [ND-020052] were under 2 µM, 2 to 10 µM (≈ 0.793 to 3.96 µg/mL) and 20 to 32 µM.
For the compound `Cc1cn2c(C(=O)NCc3ccc(N4CCC(=O)CC4)cc3)c(C)nc2s1` [ND-020070], the MIC90 in assay [1] is under 2 µM; in assay [2], 2 to 10 µM (≈ 0.765 to 3.82 µg/mL). For the same compound, the IC50 in assay [3] lay within 20 to 32 µM.
For `Cc1cn2c(C(=O)NCc3ccc(Oc4ccc(Cl)cc4)cc3)c(C)nc2s1` [ND-020060], the MIC90 in assay [1] and in assay [2] was under 2 µM in each case. The IC50 in assay [3] was in the range of 10 to 20 µM.
`Cc1nc2sc(F)cn2c1C(=O)NCc1cccc(Cl)c1` [ND-020056]: the figures for the MIC90 in assay [1] and in assay [2] were under 2 µM and 2 to 10 µM (≈ 0.648 to 3.24 µg/mL), respectively. Moreover, the IC50 in assay [3] is under 32 µM.
In the case of `Cc1cn2c(C(=O)NCCc3ccc(Cl)cc3)c(C)nc2s1` [ND-020081], the MIC90 in assay [1] and in assay [2] was under 2 µM in each case. Besides, the IC50 in assay [3] is under 32 µM.
Consider `Cc1nc2sc(C(F)(F)F)cn2c1C(=O)NCc1ccc(N2CCOCC2)c(F)c1` [ND-020038], for which the MIC90 in assay [1] was in the range of 2 to 10 µM; in assay [2] it was 2 to 10 µM (≈ 0.885 to 4.42 µg/mL). For the same compound, the IC50 in assay [3] is under 32 µM.
Regarding `CCc1nc2sc(Cl)cn2c1C(=O)NCc1ccc(N(C)C)cc1` [ND-020023], the MIC90 in assay [1] and in assay [2] was under 2 µM in each case. In assay [3], the IC50 was under 32 µM.
